Positions of bridges follow the written chain, without caps; N, C: chain ends. Non-standard residues stand in square brackets, D forms with d. Residues, ends and D or L forms follow the SMILES beside them. Lys(Me2) = CN(C)CCCC[C@H](N)C(=O)O; R8 = C=CCCCCCC[C@@](C)(N)C(=O)O; S5 = C=CCCC[C@](C)(N)C(=O)O; Ahx = NCCCCCC(=O)O
Molecular target: T1, Mdm2 (1-125) (Homo sapiens, UniProt Q00987)
T1 construct: Purified MDM2 (1-125) protein was titrated against 50 nM carboxyfluorescein (FAM)-labeled; GST (N, cleaved yes); made in house; host or cells: E. coli BL21 DE3 (pGEX-6P-1)
Assay: Mdm2 competitive fluorescence anisotropy assay (FAM-labeled 12/1 peptide displacement); also: 250 nM MDM2
Type: binding
Conditions: read-out: Kd (apparent dissociation constant, competitive fluorescence anisotropy)
Description: analyzed with SDS page gel and concentrated using a Centricon (3.5 kDa MWCO) concentrator, Millipore. Mdm2 protein samples were then dialyzed into a buffer solution containing 20mM Bis-Tris, pH 6.5, 0.05M NaCl with 1mM DTT and loaded onto a monoS column pre-equilibrated in buffer A (20mM Bis-Tris, pH 6.5, 1mM DTT). The column was then washed in 6 column volumes of buffer A and bound protein was eluted with a linear gradient of 1M NaCL over 25 column volumes. Protein fractions were analyzed with SDS page gel and concentrated using a Centricon (3.5 kDa MWCO) concentrator, Millipore.
Protein concentration was determined using A280 using an extinction coefficients […]
Mdm2 Competitive Fluorescence Anisotropy Assay and Kd Determination […]
Dissociation constants for titration of MDM2 against […]
equation shown below:25,26
[P] is the protein concentration (MDM2), [L] is the labeled peptide concentration, r is the anisotropy measured, r0 is the anisotropy of the free peptide, rb is the anisotropy of the MDM2– FAM-labeled peptide complex, Kd is the dissociation constant, [L]t is the total FAM labeled
(1 picture or pasted object on this page, not shown here) […]
peptide concentration, and [P]t is the total MDM2 concentration. […]
respective competing ligands in subsequent competition assays.
Apparent Kd values were determined for a variety of molecules via competitive fluorescence anisotropy experiments. Titrations were carried out with the concentration of MDM2 held constant […]
The competing molecules were then titrated against the complex of the FAM-labeled peptide and protein. Apparent Kd values were determined by fitting the experimental data to the equations shown below:26,27 […]
[L]st and [L]t denote labeled ligand and total unlabeled ligand input concentrations, respectively.
Kd2 is the dissociation constant of the interaction between the unlabeled ligand and the protein. In […]
all competitive types of experiments, it is assumed that [P]t > [L]st, otherwise considerable amounts of free labeled ligand would always be present and would interfere with measurements. Kd1 is the […]
experimentally determined as described in the previous paragraph. The FAM-labeled peptide was dissolved in dimethyl sulfoxide (DMSO) at 1 mM and diluted into experimental buffer. Readings were carried out with an Envision Multilabel Reader (PerkinElmer). Experiments were carried out […]
Tween 20 buffer. All titrations were carried out in triplicate. Curve-fitting was carried out using […]
Negative control titrations of the ligands under investigation were also carried out with the fluorescently labeled peptide (in the absence of MDM2) to ensure no interactions were occurring between the ligands and FAM-labeled peptide. […]
which would otherwise indicate an unintended interaction between the ligand and the FAM-labeled peptide to be displaced from the MDM2 binding site. […]

T1 sequence (Q00987 1-125): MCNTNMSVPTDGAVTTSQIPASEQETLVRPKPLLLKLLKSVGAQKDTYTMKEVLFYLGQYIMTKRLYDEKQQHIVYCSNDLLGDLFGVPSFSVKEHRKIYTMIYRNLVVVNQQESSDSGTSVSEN

Kd [nM] | SMILES
3.7 ± 0.9 | CC(=O)N[C@@H](CCCCN)C(=O)N[C@@H](CC(C)C)C(=O)N[C@@H](C)C(=O)N[C@@H](CCCCN)C(=O)NCCCCCC(=O)N[C@H](C(=O)N[C@@H](CO)C(=O)N[C@@H](Cc1ccccc1)C(=O)N[C@]1(C)CCCCCCC=CCCC[C@@](C)(C(N)=O)NC(=O)[C@H](CC(C)C)NC(=O)[C@H](CC(C)C)NC(=O)[C@H](C)NC(=O)[C@H](Cc2c[nH]c3ccccc23)NC(=O)[C@H](Cc2ccc(O)cc2)NC(=O)[C@H](CCC(=O)O)NC1=O)[C@@H](C)O [VIP-122]
19.7 ± 1.3 | CC(=O)N[C@H](C(=O)N[C@@H](CO)C(=O)N[C@@H](Cc1ccccc1)C(=O)N[C@]1(C)CCCCCCC=CCCC[C@@](C)(C(=O)N[C@@H](CCC(=O)O)C(=O)N[C@@H](CC(N)=O)C(=O)N[C@@H](Cc2ccccc2)C(N)=O)NC(=O)[C@H](CC(C)C)NC(=O)[C@H](CC(C)C)NC(=O)[C@H](C)NC(=O)[C@H](Cc2c[nH]c3ccccc23)NC(=O)[C@H](Cc2ccc(O)cc2)NC(=O)[C@H](CCC(=O)O)NC1=O)[C@@H](C)O [VIP-65]
< 1 | CC(=O)N[C@H](C(=O)N[C@@H](CO)C(=O)N[C@@H](Cc1ccccc1)C(=O)N[C@]1(C)CCCCCCC=CCCC[C@@](C)(C(=O)N[C@@H](CCC(=O)O)C(N)=O)NC(=O)[C@H](CC(C)C)NC(=O)[C@H](CC(C)C)NC(=O)[C@H](C)NC(=O)[C@H](Cc2c[nH]c3cc(Cl)ccc23)NC(=O)[C@H](Cc2ccc(O)cc2)NC(=O)[C@H](CCC(=O)O)NC1=O)[C@@H](C)O [VIP-137]
15.1 ± 1.7 | CC(=O)N[C@@H](CCCCN)C(=O)NCCCCCC(=O)N[C@H](C(=O)N[C@@H](CO)C(=O)N[C@@H](Cc1ccccc1)C(=O)N[C@]1(C)CCCCCCC=CCCC[C@@](C)(C(=O)N[C@@H](CCC(=O)O)C(=O)N[C@@H](CC(N)=O)C(=O)N[C@@H](Cc2ccccc2)C(N)=O)NC(=O)[C@H](CC(C)C)NC(=O)[C@H](CC(C)C)NC(=O)[C@H](C)NC(=O)[C@H](Cc2c[nH]c3ccccc23)NC(=O)[C@H](Cc2ccc(O)cc2)NC(=O)[C@H](CCC(=O)O)NC1=O)[C@@H](C)O [VIP-116]
25.6 ± 2.6 | CC(=O)N[C@@H](CCCCN(C)C)C(=O)N[C@@H](CCCCN(C)C)C(=O)NCCCCCC(=O)N[C@H](C(=O)N[C@@H](CO)C(=O)N[C@@H](Cc1ccccc1)C(=O)N[C@]1(C)CCCCCCC=CCCC[C@@](C)(C(=O)N[C@@H](CCC(=O)O)C(=O)N[C@@H](CC(N)=O)C(=O)N[C@@H](Cc2ccccc2)C(N)=O)NC(=O)[C@H](CC(C)C)NC(=O)[C@H](CC(C)C)NC(=O)[C@H](C)NC(=O)[C@H](Cc2c[nH]c3ccccc23)NC(=O)[C@H](Cc2ccc(O)cc2)NC(=O)[C@H](CCC(=O)O)NC1=O)[C@@H](C)O [VIP-131] (Ac-[Lys(Me2)][Lys(Me2)][Ahx]TSF[R8]EYWALL[S5]ENF-NH2; staple 7-14)
100 ± 7.7 | CC(C)C[C@@H]1NC(=O)[C@H](C)NC(=O)[C@H](Cc2c[nH]c3ccccc23)NC(=O)[C@H](Cc2ccc(O)cc2)NC(=O)[C@H](CCC(=O)O)NC(=O)[C@](C)(NC(=O)[C@H](Cc2ccccc2)NC(=O)[C@H](CO)NC(=O)[C@@H](NC(=O)CCCCCNC(=O)CCCC[C@@H]2SC[C@@H]3NC(=O)N[C@@H]32)[C@@H](C)O)CCCCCCC=CCCC[C@@](C)(C(N)=O)NC(=O)[C@H](CC(C)C)NC1=O [VIP-67]
33.6 ± 5.6 | CC(=O)N[C@@H](CCCCN)C(=O)N[C@@H](CCCCN)C(=O)N[C@@H](CO)C(=O)NCC(=O)N[C@@H](CO)C(=O)NCC(=O)N[C@H](C(=O)N[C@@H](CO)C(=O)N[C@@H](Cc1ccccc1)C(=O)N[C@]1(C)CCCCCCC=CCCC[C@@](C)(C(N)=O)NC(=O)[C@H](CC(C)C)NC(=O)[C@H](CC(C)C)NC(=O)[C@H](C)NC(=O)[C@H](Cc2c[nH]c3ccccc23)NC(=O)[C@H](Cc2ccc(O)cc2)NC(=O)[C@H](CCC(=O)O)NC1=O)[C@@H](C)O [VIP-151] (Ac-KKSGSGTSF[R8]EYWALL[S5]-NH2; staple 10-17)
1.8 ± 0.7 | CC(=O)N[C@@H](CC(C)C)C(=O)N[C@H](C(=O)N[C@@H](Cc1ccccc1)C(=O)N[C@]1(C)CCCCCCC=CCCC[C@@](C)(C(=O)N[C@@H](CCC(=O)O)C(=O)N[C@@H](CC(N)=O)C(=O)N[C@@H](Cc2ccccc2)C(N)=O)NC(=O)[C@H](CC(C)C)NC(=O)[C@H](CC(C)C)NC(=O)[C@H](C)NC(=O)[C@H](Cc2c[nH]c3ccccc23)NC(=O)[C@H](Cc2ccc(O)cc2)NC(=O)[C@H](CCC(=O)O)NC1=O)[C@@H](C)O [VIP-120] (Ac-LTF[R8]EYWALL[S5]ENF-NH2; staple 4-11)

Second part, the compound before the results:

SMILES | Kd [nM]
CC(=O)N[C@@H](Cc1c[nH]cn1)C(=O)N[C@@H](Cc1c[nH]cn1)C(=O)N[C@@H](Cc1c[nH]cn1)C(=O)NCCCCCC(=O)N[C@H](C(=O)N[C@@H](CO)C(=O)N[C@@H](Cc1ccccc1)C(=O)N[C@]1(C)CCCCCCC=CCCC[C@@](C)(C(=O)N[C@@H](CCC(=O)O)C(=O)N[C@@H](CC(N)=O)C(=O)N[C@@H](Cc2ccccc2)C(N)=O)NC(=O)[C@H](CC(C)C)NC(=O)[C@H](CC(C)C)NC(=O)[C@H](C)NC(=O)[C@H](Cc2c[nH]c3ccccc23)NC(=O)[C@H](Cc2ccc(O)cc2)NC(=O)[C@H](CCC(=O)O)NC1=O)[C@@H](C)O [VIP-81] (Ac-HHH[Ahx]TSF[R8]EYWALL[S5]ENF-NH2; staple 8-15) | 61.2 ± 6.5
CC(=O)N[C@@H](CCCCN)C(=O)N[C@@H](CCCCN)C(=O)NCCCCCC(=O)N[C@@H](CC(C)C)C(=O)N[C@H](C(=O)N[C@@H](Cc1ccccc1)C(=O)N[C@]1(C)CCCCCCC=CCCC[C@@](C)(C(=O)N[C@@H](CCC(=O)O)C(=O)N[C@@H](CC(N)=O)C(=O)N[C@@H](Cc2ccccc2)C(N)=O)NC(=O)[C@H](CC(C)C)NC(=O)[C@H](CC(C)C)NC(=O)[C@H](C)NC(=O)[C@H](Cc2c[nH]c3ccccc23)NC(=O)[C@H](Cc2ccc(O)cc2)NC(=O)[C@H](CCC(=O)O)NC1=O)[C@@H](C)O [VIP-119] (Ac-KK[Ahx]LTF[R8]EYWALL[S5]ENF-NH2; staple 7-14) | 2.7 ± 0.9
CC(=O)N[C@H](C(=O)N[C@@H](CO)C(=O)N[C@@H](Cc1ccccc1)C(=O)NC(C)(C)C(=O)N[C@@H](CCC(=O)O)C(=O)N[C@@H](Cc1ccc(O)cc1)C(=O)N[C@@H](Cc1c[nH]c2ccccc12)C(=O)N[C@@H](C)C(=O)N[C@@H](CC(C)C)C(=O)N[C@@H](CC(C)C)C(=O)NC(C)(C)C(=O)N[C@@H](CCC(=O)O)C(N)=O)[C@@H](C)O [VIP-76] | 35.9 ± 2.3
CC(=O)N[C@@H](CCCNC(=N)N)C(=O)N[C@@H](CCCNC(=N)N)C(=O)N[C@@H](CCCNC(=N)N)C(=O)NCCCCCC(=O)N[C@H](C(=O)N[C@@H](CO)C(=O)N[C@@H](Cc1ccccc1)C(=O)N[C@]1(C)CCCCCCC=CCCC[C@@](C)(C(=O)N[C@@H](CCC(=O)O)C(=O)N[C@@H](CC(N)=O)C(=O)N[C@@H](Cc2ccc(O)cc2)C(N)=O)NC(=O)[C@H](CC(C)C)NC(=O)[C@H](CC(C)C)NC(=O)[C@H](C)NC(=O)[C@H](Cc2c[nH]c3ccccc23)NC(=O)[C@H](Cc2ccc(O)cc2)NC(=O)[C@H](CCC(=O)O)NC1=O)[C@@H](C)O [VIP-85] (Ac-RRR[Ahx]TSF[R8]EYWALL[S5]ENY-NH2; staple 8-15) | 44.9 ± 3.5
CC(=O)N[C@@H](CCCNC(=N)N)C(=O)N[C@@H](CCCNC(=N)N)C(=O)N[C@@H](CCCNC(=N)N)C(=O)NCCCCCC(=O)N[C@H](C(=O)N[C@@H](CO)C(=O)N[C@@H](Cc1ccccc1)C(=O)N[C@]1(C)CCCCCCC=CCCC[C@@](C)(C(=O)N[C@@H](CCC(=O)O)C(=O)N[C@@H](CC(N)=O)C(=O)N[C@@H](Cc2ccccc2)C(N)=O)NC(=O)[C@H](CC(C)C)NC(=O)[C@H](CC(C)C)NC(=O)[C@H](C)NC(=O)[C@H](Cc2c[nH]c3ccccc23)NC(=O)[C@H](Cc2ccc(O)cc2)NC(=O)[C@H](CCC(=O)O)NC1=O)[C@@H](C)O [VIP-80] (Ac-RRR[Ahx]TSF[R8]EYWALL[S5]ENF-NH2; staple 8-15) | 45 ± 4.1
CC(=O)N[C@H](CCCCN)C(=O)N[C@H](CCCCN)C(=O)N[C@H](CCCCN)C(=O)NCCCCCC(=O)N[C@H](C(=O)N[C@@H](CO)C(=O)N[C@@H](Cc1ccccc1)C(=O)N[C@]1(C)CCCCCCC=CCCC[C@@](C)(C(=O)N[C@@H](CCC(=O)O)C(=O)N[C@@H](CC(N)=O)C(=O)N[C@@H](Cc2ccccc2)C(N)=O)NC(=O)[C@H](CC(C)C)NC(=O)[C@H](CC(C)C)NC(=O)[C@H](C)NC(=O)[C@H](Cc2c[nH]c3ccccc23)NC(=O)[C@H](Cc2ccc(O)cc2)NC(=O)[C@H](CCC(=O)O)NC1=O)[C@@H](C)O [VIP-134] (Ac-[dK][dK][dK][Ahx]TSF[R8]EYWALL[S5]ENF-NH2; staple 8-15) | 6.2 ± 0.9

— publication PMC5431883, “Enhancing Specific Disruption of Intracellular Protein Complexes by Hydrocarbon Stapled Peptides Using Lipid Based Delivery” (Scientific Reports, 2017)
